Data on three compounds can be found in ChEMBL document CHEMBL3244141, “Synthesis and analgesic activity of some long-acting piperidinospiro derivatives of methadone” (1978).

For assay [1], the species on record is Rattus norvegicus. In words: animal or person. The conditions noted are these: Sprague-Dawley, Tail, po, 24 h. The class given is functional.
In assay [2] the test system is Rattus norvegicus. Description: Analgesic activity in po dosed Sprague-Dawley rat assessed as inhibition of warm-water tail withdrawal reflex by measuring dose required to produce withdrawal latency >4 seconds measured every hour of 24 hrs relative to methadone. The class given is functional.

One may read the ED50 as the dose at which the effect has come halfway, by size or by number of responders. A lower ED50 goes with greater potency.

In turn, `CCC(OC(C)=O)C(CCN1CCC2(CCCc3ccccc32)CC1)(c1ccccc1)c1ccccc1.O=S(=O)(O)O` (stereo unspecified) registered an ED50 in the assay listed under Rattus norvegicus [1] of 0.14 mg/kg. The Ratio in the assay with Rattus norvegicus [2] is 106.
`CCC(=O)C(CCN1CCC2(CCCc3ccccc32)CC1)(c1ccccc1)c1ccccc1.O=C(O)C(=O)O`: the ED50 in the assay listed under Rattus norvegicus [1] amounted to 0.07 mg/kg. In addition, the Ratio in the assay on Rattus norvegicus [2] is 212.
For `CCC(O)C(CCN1CCC2(CCCc3ccccc32)CC1)(c1ccccc1)c1ccccc1` (racemic) the same measures were 0.14 mg/kg and 106.
